Assay results taken from patent publication US8586599B2, “Polymorphic forms of 6-(1-methyl-1H-pyrazol-4-yl)-2-{3-[5-(2-morpholin-4-yl-ethoxy)-pyrimidin-2-yl]-benzyl}-2H-pyridazin-3-one dihydrogenphosphate and processes of manufacturing thereof” (Merck Patent GmbH, priority 2008, dated 2013).
Converted amounts (≈) assume the structure as drawn.

Legend:
[1] = Water Vapour Sorption Isotherm (25° C.); type: physicochemical; conditions: for Relative humidity range with small water uptake levels upon adsorption / Relative humidity above which pronounced water uptake levels are observed / Water uptake levels at elevated relative humidity (hydrate formation) / Relative humidity above which re-conversion to the hydrate form occurs upon adsorption / Relative humidity below which hydrate water is lost: 25° C.; for Relative humidity below which hydrate water is lost: desorption
Description: The crystalline modifications of the present invention can be characterized according to standard methods which can be found e.g. in Rolf Hilfiker, ‘Polymorphism in the Pharmaceutical Industry’, Wiley-VCH, Weinheim 2006, and references therein, e.g. X-Ray diffraction (XRD; chapter 6), IR and Raman spectroscopy (chapter 5), Differential Scanning Calorimetry (DSC) and Thermogravimetric Analysis (TGA) (chapter 3), Water Vapour Sorption Studies (chapter 9), or which can be found e.g. in H. G. Brittain (editor), Polymorphism in Pharmaceutical Solids, Vol. 95, Marcel Dekker Inc., New York 1999 (chapter 6: all there mentioned techniques).
Pronounced water uptake levels are observed above 70% RH (crystalline modification A type a) and above 90% RH (crystalline modification A type b), respectively, which results in formation of dihydrate crystalline modification H1 (water uptake levels of approx. 6 wt %) at elevated relative humidity (RH).
Pronounced water uptake levels are observed above 70% RH, which results in formation of crystalline hydrate modification NF5 (water uptake levels of approx. 5-6 wt %) at elevated relative humidity (RH).

[2] = Kinetic solubility determination in water:acetone 30:70 (v:v) after 2 hours (Example 14)
Method: (§2) The dispersion was agitated at RT for 2 hours at 450 rpm. After filtration of the dispersion after 2 hours, the filtrate is analysed by HPLC (dilution may be necessary before analysis).

[3] = Competitive slurry conversion of crystalline modifications A1 and NF3 in organic solvents (Example 10); type: physicochemical; conditions: 25° C. and 50° C., in words
Method: PTFE-coated stirring rods were inserted into the dispersions prior to sealing the vials. Dispersions were agitated in closed vials for 5 days, using a magnetic stirrer, at 25° C. and 50° C., respectively. Solid-state residues were filtered, and analyzed by XRD to monitor morphic form after solvent slurrying.

[4] = Competitive slurry conversion of crystalline modifications H1 and NF3 in water (Example 13); type: physicochemical; conditions: aqueous slurrying at 25° C., in words
Method: A PTFE-coated stirring rod was inserted into the dispersion prior to sealing the vial. The dispersion was agitated in closed vial for 5 days, using a magnetic stirrer, at 25° C. The solid-state residue was filtered, and analyzed by XRD to monitor morphic form after solvent slurrying.

[5] = Competitive slurry conversion of crystalline modifications H1 and NF5 in water (Example 12); type: physicochemical; conditions: aqueous slurrying at 25° C., in words
Method: (§1) A PTFE-coated stirring rod was inserted into the dispersion prior to sealing the vial. The dispersion was agitated in closed vial for 12 days, using a magnetic stirrer, at 25° C. The solid-state residue was filtered, and analyzed by XRD to monitor morphic form after solvent slurrying.

physchem = conditions: organic solvent or mixture, thermodynamic from solid
Method: as §2

[6] = Competitive slurry conversion of crystalline modifications A1 and NF5 in water (Example 11); type: physicochemical; conditions: aqueous slurrying at 25° C., in words
Method: as §1

[7] = Stability in aqueous solution, salt compared to free base; type: physicochemical; conditions: in words, no data shown
[8] = Solubility determination in water (Example 9); type: physicochemical; conditions: for pH value: solubility sample in water; for solubility at 1 h / solubility at 2 h: thermodynamic from solid, water, ambient temperature, maximal possible concentration 10 mg/mL
Method: The mixture is stirred at 1000 rpm on a magnetic stirring plate at ambient temperature. At the sampling point 100 μL of the respective solution/suspension are transferred to a 500 μL Eppendorff cap and are centrifuged for 5 min at 14000 rpm.

For `Cn1cc(-c2ccc(=O)n(Cc3cccc(-c4ncc(OCCN5CCOCC5)cn4)c3)n2)cn1.O=P(O)(O)O` [crystalline modification A1, 6-(1-methyl-1H-pyrazol-4-yl)-2-{3-[5-(2-morpholin-4-yl-ethoxy)-pyrimidin-2-yl]-benzyl}-2H-pyridazin-3-one dihydrogenphosphate anhydrate], which “Relative humidity range with small water uptake levels upon adsorption” value ([1]; type a) is on record?
Its value is 0-70 % relative humidity (RH).

What about the “Relative humidity above which pronounced water uptake levels are observed” value ([1]; type a, results in formation of dihydrate H1) of the same compound?
Its value is “above 70 % RH”.

And the “Relative humidity range with small water uptake levels upon adsorption” value ([1]; type b)?
Its value is 0-90 % RH.

What about the “Relative humidity above which pronounced water uptake levels are observed” value ([1]; type b, results in formation of dihydrate H1) of the same compound?
Its value is “above 90 % RH”.

What about the “Water uptake levels at elevated relative humidity (hydrate formation)” value ([1]; listed as A1) of the same compound?
The value was “approx. 6 wt %”.

And the “Physical stable form in the humidity range 0% up to (upper limit)” value ([1]; varying relative humidity conditions)?
Its value is “at least 70 % RH”.

And the “Solubility water:acetone (30:70, v:v) after 2 h” value ([2]; kinetic solubility, RT, 2 hours, 450 rpm)?
Its value is 18.2 mg/mL.

What about the “Relative stability of forms A1 and NF3” value [3] of the same compound?
Its value is “more stable form”.

With `Cn1cc(-c2ccc(=O)n(Cc3cccc(-c4ncc(OCCN5CCOCC5)cn4)c3)n2)cn1.O.O.O=P(O)(O)O` [crystalline modification H1, 6-(1-methyl-1H-pyrazol-4-yl)-2-{3-[5-(2-morpholin-4-yl-ethoxy)-pyrimidin-2-yl]-benzyl}-2H-pyridazin-3-one dihydrogenphosphate dihydrate] as the compound, how does the “Relative humidity above which re-conversion to the hydrate form occurs upon adsorption” value [1] read?
The value was over 70 % RH.

And the “Relative humidity below which hydrate water is lost” value [1]?
The value was < 40 % relative humidity (RH).

What about the “Relative stability of forms H1 and NF3” value [4] of the same compound?
The value was “more stable form in an aqueous dispersion system”.

What about the “Relative stability of forms H1 and NF5” value [5] of the same compound?
The value was “stable form in an aqueous dispersion system”.

What does the source list for `Cn1cc(-c2ccc(=O)n(Cc3cccc(-c4ncc(OCCN5CCOCC5)cn4)c3)n2)cn1.O=P(O)(O)O` [crystalline modification NF3, 6-(1-methyl-1H-pyrazol-4-yl)-2-{3-[5-(2-morpholin-4-yl-ethoxy)-pyrimidin-2-yl]-benzyl}-2H-pyridazin-3-one dihydrogenphosphate]?
solubility at 2 h (physchem): 10.6 mg/mL; Relative humidity range with small water uptake levels upon adsorption [1]: 0-70 % relative humidity (RH); Water uptake levels at elevated relative humidity (hydrate formation) ([1]; listed as NF3): 5-6 wt %; Relative humidity above which pronounced water uptake levels are observed ([1]; results in formation of hydrate NF5): above 70 % RH; Solubility level after 2 hours compared to form A1 ([2]; water:acetone (30:70, v:v), in words): lower solubility level

What does the source list for `Cn1cc(-c2ccc(=O)n(Cc3cccc(-c4ncc(OCCN5CCOCC5)cn4)c3)n2)cn1.O.O=P(O)(O)O` [crystalline modification NF5, 6-(1-methyl-1H-pyrazol-4-yl)-2-{3-[5-(2-morpholin-4-yl-ethoxy)-pyrimidin-2-yl]-benzyl}-2H-pyridazin-3-one dihydrogenphosphate hydrate]?
Relative stability of forms A1 and NF5 [6]: more stable form in an aqueous dispersion system; Relative humidity above which re-conversion to the hydrate form occurs upon adsorption [1]: > 70 % RH; Relative humidity below which hydrate water is lost [1]: < 40 % relative humidity (RH)

Which “Stability in aqueous solution compared to free base” value [7] does the source give for `Cn1cc(-c2ccc(=O)n(Cc3cccc(-c4ncc(OCCN5CCOCC5)cn4)c3)n2)cn1.O=P(O)(O)O` [dihydrogenphosphate, 6-(1-methyl-1H-pyrazol-4-yl)-2-{3-[5-(2-morpholin-4-yl-ethoxy)-pyrimidin-2-yl]-benzyl}-2H-pyridazin-3-one dihydrogenphosphate] here?
The value was “significantly superior stability in aqueous solution”.

What about the “Solubility in aqueous solutions compared to free base” value ([8]; in words) of the same compound?
Its value is “significantly higher solubility”.

And the pH value ([8]; sample point 1 h)?
The pH value was 3.91.

And the pH value ([8]; sample point 2 h)?
The pH value was 3.97.

What about the solubility at 1 h ([8]; sample point 1 h) of the same compound?
The solubility at 1 h was 9860 µg/mL.

What about the solubility at 2 h ([8]; sample point 2 h) of the same compound?
The solubility at 2 h was over 10000 µg/mL.

For `Cn1cc(-c2ccc(=O)n(Cc3cccc(-c4ncc(OCCN5CCOCC5)cn4)c3)n2)cn1` [free base, 6-(1-methyl-1H-pyrazol-4-yl)-2-{3-[5-(2-morpholin-4-yl-ethoxy)-pyrimidin-2-yl]-benzyl}-2H-pyridazin-3-one], which solubility at 1 h ([8]; sample point 1 h) is on record?
The solubility at 1 h was 167 µg/mL (≈ 353 µM).

And the solubility at 2 h ([8]; sample point 2 h)?
The solubility at 2 h was 156 µg/mL (≈ 329 µM).
